In the supplement of paper PMC10307832:

What was measured:
Test in all cases: relative viability (nuclei count vs DMSO), 5 days (fraction); higher = more cells survive
UMC-11 = test system: UMC-11
Summary of the method: (§1)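 Relative viability divides the nuclei count in treated wells by that in vehicle wells. Lung cancer cell lines were seeded in 1536-well plates, dosed by pin tool the next day, and fixed and stained after 5 days in one step with final 0.05% Triton X-100, 1% formaldehyde and 1 ug/ml Hoechst. Dosing was a single drug or a fixed anchor-drug dose plus five library-drug doses (not always all listed) in √10 steps, and values are medians of duplicate plates imaged at 4×.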

NCI-H2087 = test system: NCI-H2087
Summary of the method: as §1

NCI-H3122 = test system: NCI-H3122
Summary of the method: as §1

NCI-H2170 = test system: NCI-H2170
Summary of the method: as §1

NCI-H1395 = test system: NCI-H1395
Summary of the method: as §1

NCI-H1651 = test system: NCI-H1651
Summary of the method: as §1

PC-3 [JPC-3] = test system: PC-3 [JPC-3]
Summary of the method: as §1

NCI-H1793 = test system: NCI-H1793
Summary of the method: as §1

ABC-1 = test system: ABC-1
Summary of the method: as §1

CAL-12T = test system: CAL-12T
Summary of the method: as §1

RERF-LC-KJ = test system: RERF-LC-KJ
Summary of the method: as §1

NCI-H1755 = test system: NCI-H1755
Summary of the method: as §1

NCI-H1944 = test system: NCI-H1944
Summary of the method: as §1

LOU-NH91 = test system: LOU-NH91
Summary of the method: as §1

LU99A = test system: LU99A
Summary of the method: as §1

NCI-H460 = test system: NCI-H460
Summary of the method: as §1

LC-2-ad = test system: LC-2-ad
Summary of the method: as §1

HCC-366 = test system: HCC-366
Summary of the method: as §1

NCI-H2405 = test system: NCI-H2405
Summary of the method: as §1

HCC-78 = test system: HCC-78
Summary of the method: as §1

NCI-H2228 = test system: NCI-H2228
Summary of the method: as §1

In the case of Nc1ccn([C@@H]2O[C@H](CO)[C@@H](O)[C@@H]2O)c(=O)n1 [Cytarabine] + Cc1nc(NC(=O)N2CCC[C@H]2C(N)=O)sc1-c1ccnc(C(C)(C)C(F)(F)F)c1 [Alpelisib] (partner 2 µM), the relative viability (UMC-11; first compound 0.005 µM) is reported as 0.496, the relative viability (UMC-11; first compound 0.01581 µM) is reported as 0.463 and the relative viability (UMC-11; first compound 0.05 µM) is reported as 0.375. For the same molecule, the relative viability (UMC-11; first compound 0.1581 µM) was 0.192, the relative viability (UMC-11; first compound 0.5 µM) was 0.18 and the relative viability (NCI-H2087; first compound 0.005 µM) was 0.962. It also gave a relative viability (NCI-H2087; first compound 0.01581 µM) of 1.1, a relative viability (NCI-H2087; first compound 0.05 µM) of 0.899 and a relative viability (NCI-H2087; first compound 0.1581 µM) of 0.666. It also gave a relative viability (NCI-H2087; first compound 0.5 µM) of 0.452, a relative viability (NCI-H3122; first compound 0.005 µM) of 0.673 and a relative viability (NCI-H3122; first compound 0.01581 µM) of 0.699. It also gave a relative viability (NCI-H3122; first compound 0.05 µM) of 0.772, a relative viability (NCI-H3122; first compound 0.1581 µM) of 0.464 and a relative viability (NCI-H3122; first compound 0.5 µM) of 0.424. The relative viability (NCI-H2170; first compound 0.01581 µM) was 0.606, the relative viability (NCI-H2170; first compound 0.05 µM) was 0.562 and the relative viability (NCI-H2170; first compound 0.1581 µM) was 0.389. It also gave a relative viability (NCI-H2170; first compound 0.5 µM) of 0.314, a relative viability (NCI-H1395; first compound 0.005 µM) of 1.04 and a relative viability (NCI-H1395; first compound 0.01581 µM) of 0.858. For the same molecule, the relative viability (NCI-H1395; first compound 0.05 µM) was 0.583, the relative viability (NCI-H1395; first compound 0.1581 µM) was 0.423 and the relative viability (NCI-H1395; first compound 0.5 µM) was 0.441. The relative viability (NCI-H1651; first compound 0.005 µM) was 0.817, the relative viability (NCI-H1651; first compound 0.01581 µM) was 1.01 and the relative viability (NCI-H1651; first compound 0.05 µM) was 1.17. It also gave a relative viability (NCI-H1651; first compound 0.1581 µM) of 0.401, a relative viability (NCI-H1651; first compound 0.5 µM) of 0.261 and a relative viability (PC-3 [JPC-3]; first compound 0.005 µM) of 0.95. The relative viability (PC-3 [JPC-3]; first compound 0.01581 µM) was 0.926, the relative viability (PC-3 [JPC-3]; first compound 0.05 µM) was 0.927 and the relative viability (PC-3 [JPC-3]; first compound 0.1581 µM) was 0.634. For the same molecule, the relative viability (PC-3 [JPC-3]; first compound 0.5 µM) was 0.65, the relative viability (NCI-H1793; first compound 0.005 µM) was 0.573 and the relative viability (NCI-H1793; first compound 0.01581 µM) was 0.687. It also gave a relative viability (NCI-H1793; first compound 0.05 µM) of 0.691, a relative viability (NCI-H1793; first compound 0.1581 µM) of 0.389 and a relative viability (NCI-H1793; first compound 0.5 µM) of 0.251. The relative viability (ABC-1; first compound 0.005 µM) was 1.02, the relative viability (ABC-1; first compound 0.01581 µM) was 1.4 and the relative viability (ABC-1; first compound 0.05 µM) was 1.09. The relative viability (ABC-1; first compound 0.1581 µM) was 0.738, the relative viability (ABC-1; first compound 0.5 µM) was 0.55 and the relative viability (CAL-12T; first compound 0.005 µM) was 1.25. For the same molecule, the relative viability (CAL-12T; first compound 0.01581 µM) was 1.44, the relative viability (CAL-12T; first compound 0.05 µM) was 1.1 and the relative viability (CAL-12T; first compound 0.1581 µM) was 0.514. The relative viability (CAL-12T; first compound 0.5 µM) was 0.201, the relative viability (RERF-LC-KJ; first compound 0.005 µM) was 0.742 and the relative viability (RERF-LC-KJ; first compound 0.01581 µM) was 0.657. For the same molecule, the relative viability (RERF-LC-KJ; first compound 0.05 µM) was 0.864, the relative viability (RERF-LC-KJ; first compound 0.1581 µM) was 0.499 and the relative viability (RERF-LC-KJ; first compound 0.5 µM) was 0.36. For the same molecule, the relative viability (NCI-H1755; first compound 0.005 µM) was 0.925, the relative viability (NCI-H1755; first compound 0.01581 µM) was 0.878 and the relative viability (NCI-H1755; first compound 0.05 µM) was 0.75. For the same molecule, the relative viability (NCI-H1755; first compound 0.1581 µM) was 0.244, the relative viability (NCI-H1755; first compound 0.5 µM) was 0.273 and the relative viability (NCI-H1944; first compound 0.005 µM) was 0.563. The relative viability (NCI-H1944; first compound 0.01581 µM) was 0.361, the relative viability (NCI-H1944; first compound 0.05 µM) was 0.364 and the relative viability (NCI-H1944; first compound 0.1581 µM) was 0.183. The relative viability (NCI-H1944; first compound 0.5 µM) was 0.144, the relative viability (LOU-NH91; first compound 0.005 µM) was 0.708 and the relative viability (LOU-NH91; first compound 0.01581 µM) was 0.695. It also gave a relative viability (LOU-NH91; first compound 0.05 µM) of 0.603, a relative viability (LOU-NH91; first compound 0.1581 µM) of 0.425 and a relative viability (LOU-NH91; first compound 0.5 µM) of 0.462. For the same molecule, the relative viability (LU99A; first compound 0.005 µM) was 0.519, the relative viability (LU99A; first compound 0.01581 µM) was 0.565 and the relative viability (LU99A; first compound 0.05 µM) was 0.51. The relative viability (LU99A; first compound 0.1581 µM) was 0.5, the relative viability (LU99A; first compound 0.5 µM) was 0.406 and the relative viability (NCI-H460; first compound 0.005 µM) was 0.31. It also gave a relative viability (NCI-H460; first compound 0.01581 µM) of 0.252, a relative viability (NCI-H460; first compound 0.05 µM) of 0.121 and a relative viability (NCI-H460; first compound 0.1581 µM) of 0.0355. The relative viability (NCI-H460; first compound 0.5 µM) was 0.0251, the relative viability (LC-2-ad; first compound 0.005 µM) was 0.898 and the relative viability (LC-2-ad; first compound 0.01581 µM) was 0.785. The relative viability (LC-2-ad; first compound 0.05 µM) was 0.802, the relative viability (LC-2-ad; first compound 0.1581 µM) was 0.441 and the relative viability (LC-2-ad; first compound 0.5 µM) was 0.228. For the same molecule, the relative viability (HCC-366; first compound 0.005 µM) was 0.281, the relative viability (HCC-366; first compound 0.01581 µM) was 0.228 and the relative viability (HCC-366; first compound 0.05 µM) was 0.104. The relative viability (HCC-366; first compound 0.1581 µM) was 0.047, the relative viability (HCC-366; first compound 0.5 µM) was 0.019 and the relative viability (NCI-H2405; first compound 0.005 µM) was 0.771. For the same molecule, the relative viability (NCI-H2405; first compound 0.01581 µM) was 0.657, the relative viability (NCI-H2405; first compound 0.05 µM) was 0.512 and the relative viability (NCI-H2405; first compound 0.1581 µM) was 0.527. It also gave a relative viability (NCI-H2405; first compound 0.5 µM) of 0.301, a relative viability (HCC-78; first compound 0.005 µM) of 0.41 and a relative viability (HCC-78; first compound 0.01581 µM) of 0.298. For the same molecule, the relative viability (HCC-78; first compound 0.05 µM) was 0.281, the relative viability (HCC-78; first compound 0.1581 µM) was 0.185 and the relative viability (HCC-78; first compound 0.5 µM) was 0.202. For the same molecule, the relative viability (NCI-H2228; first compound 0.005 µM) was 0.403, the relative viability (NCI-H2228; first compound 0.01581 µM) was 0.201 and the relative viability (NCI-H2228; first compound 0.05 µM) was 0.251. For the same molecule, the relative viability (NCI-H2228; first compound 0.1581 µM) was 0.207 and the relative viability (NCI-H2228; first compound 0.5 µM) was 0.164.
